{"source": "patent US7045126B2", "about": "“Histone deacetylase-8 proteins, nucleic acids, and methods for use” (Applera Corporation, priority 1999, dated 2006)", "origin": "cited, not measured here", "key": {"tumor": {"test_system": "tumor", "details": "tumor bearing nude mice"}, "[1]": {"test_system": "acute promyelocytic leukemia (APL)", "details": "incl. retinoic acid resistant forms"}, "cell cycle": {"test_system": "cell cycle", "details": "variety of systems"}}}
{"compound": "Nc1ccccc1NC(=O)c1ccc(CNC(=O)OCc2cccnc2)cc1", "note": "[MS-27275]", "values": [{"measurement": "inhibition of tumor growth", "setting": "tumor", "result": "demonstrates efficacy in inhibiting tumor growth"}, {"measurement": "histone hyperacetylation", "setting": "histones", "result": "induces histone hyperacetylation"}]}
{"compound": "CCCC(=O)[O-].[Na+]", "note": "[sodium butyrate]", "values": [{"measurement": "therapeutic use to target transcription in APL", "setting": "[1]", "result": "successful even in retinoic acid resistant forms of the disease"}]}
{"compound": "CC(/C=C/C(=O)NO)=C\\[C@@H](C)C(=O)c1ccc(N(C)C)cc1", "note": "[trichostatin A]", "values": [{"measurement": "cell cycle arrest and/or differentiation", "setting": "cell cycle", "result": "induce cell cycle arrest and/or differentiation"}]}
